Where a name gives a salt, the structure may show the parent alone.
Molecular target: T1, HCV polymerase (Hepatitis C virus genotype 1b, UniProt P26663)
T1 construct: a region encoding NS5B (591 amino acids; J Virol 1991 Mar, 65(3), 1105-13) was amplified by PCR; 6 His (N); made in house; host or cells: Escherichia coli
Assay: biochemical
Conditions: read-out: HCV polymerase inhibitory activity IC50

T1 sequence (P26663 2420-3010): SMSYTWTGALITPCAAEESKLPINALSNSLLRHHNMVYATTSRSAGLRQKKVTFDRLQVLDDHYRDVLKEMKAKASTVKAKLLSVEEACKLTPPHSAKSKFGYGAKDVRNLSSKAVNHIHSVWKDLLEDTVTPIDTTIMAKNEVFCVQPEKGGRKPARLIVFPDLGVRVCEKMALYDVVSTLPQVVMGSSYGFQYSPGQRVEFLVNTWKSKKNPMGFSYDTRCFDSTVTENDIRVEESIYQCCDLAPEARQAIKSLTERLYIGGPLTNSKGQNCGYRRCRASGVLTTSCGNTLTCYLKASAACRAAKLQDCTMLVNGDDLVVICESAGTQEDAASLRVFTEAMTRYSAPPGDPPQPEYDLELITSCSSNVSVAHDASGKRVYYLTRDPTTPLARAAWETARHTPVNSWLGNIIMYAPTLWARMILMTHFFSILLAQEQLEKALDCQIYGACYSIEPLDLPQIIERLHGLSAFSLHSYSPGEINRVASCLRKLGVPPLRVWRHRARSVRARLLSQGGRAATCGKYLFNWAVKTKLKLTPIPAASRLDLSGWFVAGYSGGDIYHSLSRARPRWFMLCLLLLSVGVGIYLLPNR

SMILES	IC50 [µM]
CC(C)=CCOc1cccc(Oc2ccc(-c3nc4cc(C(=O)O)ccc4n3C3CCCCC3)cc2)c1 [Example 113, 1-cyclohexyl-2-{4-[3-(3-methyl-2-butenyloxy)phenoxy]phenyl}-benzimidazole-5-carboxylic acid]	0.071
CC(C)CCOc1ccccc1Oc1ccc(-c2nc3cc(C(=O)O)ccc3n2C2CCCCC2)cc1 [Example 114, 1-cyclohexyl-2-[4-(2-isopentyloxyphenoxy)phenyl]benzimidazole-5-carboxylic acid]	0.56
CC(C)CCOc1cccc(Oc2ccc(-c3nc4cc(C(=O)O)ccc4n3C3CCCCC3)cc2)c1 [Example 115, 1-cyclohexyl-2-[4-(3-isopentyloxyphenoxy)phenyl]benzimidazole-5-carboxylic acid]	0.17
O=C(O)c1ccc2c(c1)nc(-c1ccc(OCc3ccccc3-c3ccc(C(F)(F)F)cc3)cc1)n2C1CCCCC1 [Example 117, 1-cyclohexyl-2-{4-[2-(4-trifluoromethylphenyl)benzyloxy]-phenyl}benzimidazole-5-carboxylic acid]	0.075
O=C(O)c1ccc2c(c1)nc(-c1ccc(OC(c3ccc(Cl)cc3)c3ccc(Cl)cc3)cc1)n2C1CCCCC1 [Example 118, 2-{4-[bis(4-chlorophenyl)methoxy]phenyl}-1-cyclohexylbenzimidazole-5-carboxylic acid]	0.14
COc1ccc(CCOc2ccc(-c3nc4cc(C(=O)O)ccc4n3C3CCCCC3)cc2)cc1 [Example 119, 1-cyclohexyl-2-{4-[2-(4-methoxyphenyl)ethoxy]phenyl}-benzimidazole-5-carboxylic acid]	0.13
COc1cccc(CCOc2ccc(-c3nc4cc(C(=O)O)ccc4n3C3CCCCC3)cc2)c1 [Example 121, 1-cyclohexyl-2-{4-[2-(3-methoxyphenyl)ethoxy]phenyl}-benzimidazole-5-carboxylic acid]	0.19
O=C(O)c1ccc2c(c1)nc(-c1ccc(OCc3ccccc3)cc1)n2C1CCCCCC1 [Example 122, 2-(4-benzyloxyphenyl)-1-cycloheptylbenzimidazole-5-carboxylic acid]	0.51
O=C(O)c1ccc2c(c1)nc(-c1ccc(Oc3ccccc3OCCc3ccccc3)cc1)n2C1CCCCC1 [Example 123, 1-cyclohexyl-2-[4-(2-phenethyloxyphenoxy)phenyl]benzimidazole-5-carboxylic acid]	0.1
O=C(O)c1ccc2c(c1)nc(-c1ccc(Oc3cccc(OCCc4ccccc4)c3)cc1)n2C1CCCCC1 [Example 124, 1-cyclohexyl-2-[4-(3-phenethyloxyphenoxy)phenyl]benzimidazole-5-carboxylic acid]	0.091
O=C(O)c1ccc2c(c1)nc(-c1ccc(OCC(c3ccccc3)c3ccccc3)cc1)n2C1CCCCC1 [Example 125, 1-cyclohexyl-2-[4-(2,2-diphenylethoxy)phenyl]benzimidazole-5-carboxylic acid]	0.12
O=C(O)c1ccc2c(c1)nc(-c1ccc(Oc3ccccc3Oc3ccccc3)cc1)n2C1CCCCC1 [Example 128, 1-cyclohexyl-2-[4-(2-phenoxyphenoxy)phenyl]benzimidazole-5-carboxylic acid]	0.14
O=C(O)c1ccc2c(c1)nc(-c1ccc(OCc3ccccc3-c3ccc(C(F)(F)F)cc3)cc1F)n2C1CCCCC1 [Example 131, 1-cyclohexyl-2-{2-fluoro-4-[2-(4-trifluoromethylphenyl)-benzyloxy]phenyl}benzimidazole-5-carboxylic acid]	0.046
O=C(O)c1ccc2c(c1)nc(-c1ccc(Oc3ccc(OCc4ccccc4)cc3)cc1)n2C1CCCCC1 [Example 132, 2-[4-(4-benzyloxyphenoxy)phenyl]-1-cyclohexylbenzimidazole-5-carboxylic acid]	0.055
Cc1ccc(C(Oc2ccc(-c3nc4cc(C(=O)O)ccc4n3C3CCCCC3)cc2)c2ccc(C)cc2)cc1 [Example 133, 2-{4-[bis(4-methylphenyl)methoxy]phenyl}-1-cyclohexylbenzimidazole-5-carboxylic acid]	0.12
O=C(O)c1ccc2c(c1)nc(-c1ccc(OC(c3ccc(F)cc3)c3ccc(F)cc3)cc1)n2C1CCCCC1 [Example 134, 2-{4-[bis(4-fluorophenyl)methoxy]phenyl}-1-cyclohexylbenzimidazole-5-carboxylic acid]	0.071
O=C(O)c1ccc2c(c1)nc(-c1ccc(OCCc3cccc(OCc4ccccc4)c3)cc1)n2C1CCCCC1 [Example 139, 2-{4-[2-(3-benzyloxyphenyl)ethoxy]phenyl}-1-cyclohexylbenzimidazole-5-carboxylic acid]	0.26
O=C(O)COc1ccccc1Oc1ccc(-c2nc3cc(C(=O)O)ccc3n2C2CCCCC2)cc1 [Example 140, 2-[4-(2-carboxymethyloxyphenoxy)phenyl]-1-cyclohexylbenzimidazole-5-carboxylic acid]	0.11

SMILES	IC50 [µM]
O=C(O)COc1cccc(Oc2ccc(-c3nc4cc(C(=O)O)ccc4n3C3CCCCC3)cc2)c1 [Example 141, 2-[4-(3-carboxymethyloxyphenoxy)phenyl]-1-cyclohexylbenzimidazole-5-carboxylic acid]	0.43
Cc1cc(OCc2ccccc2-c2ccc(C(F)(F)F)cc2)ccc1-c1nc2cc(C(=O)O)ccc2n1C1CCCCC1 [Example 144, 1-cyclohexyl-2-{2-methyl-4-[2-(4-trifluoromethylphenyl)-benzyloxy]phenyl}benzimidazole-5-carboxylic acid]	0.19
CC(C)(C)c1ccc(-c2ccc(Cl)cc2COc2ccc(-c3nc4cc(C(=O)O)ccc4n3C3CCCCC3)cc2)cc1 [Example 145, 2-{4-[2-(4-tert-butylphenyl)-5-chlorobenzyloxy]phenyl}-1-cyclohexylbenzimidazole-5-carboxylic acid]	0.088
O=C(O)c1ccc2c(c1)nc(-c1ccc(OCc3cc(Cl)ccc3-c3ccccc3)cc1F)n2C1CCCCC1 [Example 146, 2-{4-(3-chloro-6-phenylbenzyloxy)-2-fluorophenyl}-1-cyclohexylbenzimidazole-5-carboxylic acid]	0.043
O=C(O)c1ccc2c(c1)nc(-c1ccc(OCc3cc(Cl)ccc3-c3cc(Cl)cc(Cl)c3)cc1)n2C1CCCCC1 [Example 147, 2-{4-[3-chloro-6-(3,5-dichlorophenyl)benzyloxy]phenyl}-1-cyclohexylbenzimidazole-5-carboxylic acid]	0.31
O=C(O)c1ccc2c(c1)nc(-c1ccc(OC(c3ccc(F)cc3)c3ccc(F)cc3)cc1F)n2C1CCCCC1 [Example 148, 2-{4-[bis(4-fluorophenyl)methoxy]-2-fluorophenyl}-1-cyclohexylbenzimidazole-5-carboxylic acid]	0.038
O=C(O)c1ccc2c(c1)nc(-c1ccc(Oc3ccc(OCc4ccccc4)cc3)cc1Cl)n2C1CCCCC1 [Example 149, 2-{4-(4-benzyloxyphenoxy)-2-chlorophenyl}-1-cyclohexylbenzimidazole-5-carboxylic acid]	0.15
O=C(O)c1ccc2c(c1)nc(-c1ccc(Oc3ccc(OCc4ccccc4)cc3)cc1C(F)(F)F)n2C1CCCCC1 [Example 150, 2-{4-(4-benzyloxyphenoxy)-2-trifluoromethylphenyl}-1-cyclohexylbenzimidazole-5-carboxylic acid]	0.24
O=C(O)c1ccc2c(c1)nc(-c1ccc(OCc3cc(Cl)ccc3-c3ccccc3C(F)(F)F)cc1)n2C1CCCCC1 [Example 151, 2-{4-[3-chloro-6-(2-trifluoromethylphenyl)benzyloxy]phenyl}-1-cyclohexylbenzimidazole-5-carboxylic acid]	0.2
O=C(O)c1ccc2c(c1)nc(-c1ccc(Oc3ccccc3-c3ccccc3)cc1)n2C1CCCCC1 [Example 153, 2-[4-(2-biphenylyloxy)phenyl]-1-cyclohexylbenzimidazole-5-carboxylic acid]	0.19
O=C(O)c1ccc2c(c1)nc(-c1ccc(Oc3cccc(-c4ccccc4)c3)cc1)n2C1CCCCC1 [Example 154, 2-[4-(3-biphenylyloxy)phenyl]-1-cyclohexylbenzimidazole-5-carboxylic acid]	0.076
CC(C)(C)OC(=O)N1CCC(COc2ccccc2Oc2ccc(-c3nc4cc(C(=O)O)ccc4n3C3CCCCC3)cc2)CC1 [Example 155, 2-{4-[2-{(1-tert-butoxycarbonyl-4-piperidyl)methoxy}phenoxy]-phenyl}-1-cyclohexylbenzimidazole-5-carboxylic acid]	0.53
CC(C)(C)OC(=O)N1CCC(COc2cccc(Oc3ccc(-c4nc5cc(C(=O)O)ccc5n4C4CCCCC4)cc3)c2)CC1 [Example 156, 2-{4-[3-{(1-tert-butoxycarbonyl-4-piperidyl)methoxy}phenoxy]-phenyl}-1-cyclohexylbenzimidazole-5-carboxylic acid]	0.23
O=C(O)c1ccc2c(c1)nc(-c1ccc(Oc3ccccc3OCC3CCNCC3)cc1)n2C1CCCCC1 [Example 160, 1-cyclohexyl-2-{4-[2-(4-piperidylmethoxy)phenoxy]phenyl}-benzimidazole-5-carboxylic acid hydrochloride]	0.24
O=C(O)c1ccc2c(c1)nc(-c1ccc(Oc3cccc(OCC4CCNCC4)c3)cc1)n2C1CCCCC1 [Example 161, 1-cyclohexyl-2-{4-[3-(4-piperidylmethoxy)phenoxy]phenyl}-benzimidazole-5-carboxylic acid hydrochloride]	0.062
CC(=O)N[C@@H](COc1ccc(-c2nc3cc(C(=O)O)ccc3n2C2CCCCC2)cc1)c1ccccc1 [Example 162, 2-{4-[(2R)-2-acetylamino-2-phenylethoxy]phenyl}-1-cyclohexylbenzimidazole-5-carboxylic acid]	0.43
CC(C)=CCCOc1cccc(Oc2ccc(-c3nc4cc(C(=O)O)ccc4n3C3CCCCC3)cc2)c1 [Example 163, 1-cyclohexyl-2-{4-[3-(4-methyl-3-pentenyloxy)phenoxy]phenyl}-benzimidazole-5-carboxylic acid]	0.15
O=C(O)c1ccc2c(c1)nc(-c1ccc(OC[C@@H]3CCCN3Cc3ccccc3)cc1)n2C1CCCCC1 [Example 165, 2-{4-[{(2S)-1-benzyl-2-pyrrolidinyl}methoxy]phenyl}-1-cyclohexyl-benzimidazole-5-carboxylic acid hydrochloride]	0.58

— patent publication US20040082635A1, “Fused cyclic compounds and medicinal use thereof” (priority 2001, published 2004)
